# Test system: SEM cells
# Assay: cell viability relative to DMSO control; higher = less cytotoxic
# Conditions: 48 h
# Procedure, shortened: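 Viability was expressed as a per-plate percentage of DMSO wells, with cell-free wells as background. Leukemia cells (NOMO1 or SEM at 500 cells/well, P12-Ichikawa at 1000 cells/well) were adapted for at least four passages in each medium and seeded in 1536-well plates (5 μl). Library compounds in DMSO were pin-dosed over an 11-point threefold series from 47 μM to 0.79 nM, and CellTiter-Glo One luminescence was read after 48 h at 37°C.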
# [1] = HPLM + 10% dialyzed FBS, 0.000781 µM
# [2] = HPLM + 10% dialyzed FBS, 0.00234 µM
# [3] = HPLM + 10% dialyzed FBS, 0.00702 µM
# [4] = HPLM + 10% dialyzed FBS, 0.0211 µM
# [5] = HPLM + 10% dialyzed FBS, 0.0632 µM
# [6] = HPLM + 10% dialyzed FBS, 0.19 µM
# [7] = HPLM + 10% dialyzed FBS, 0.569 µM
# [8] = HPLM + 10% dialyzed FBS, 1.71 µM
# [9] = HPLM + 10% dialyzed FBS, 5.12 µM
# [10] = HPLM + 10% dialyzed FBS, 15.4 µM
# [11] = HPLM + 10% dialyzed FBS, 46.1 µM
# [12] = RPMI 5 mM glucose + 10% FBS, 0.000781 µM
# [13] = RPMI 5 mM glucose + 10% FBS, 0.00234 µM
# [14] = RPMI 5 mM glucose + 10% FBS, 0.00702 µM
# [15] = RPMI 5 mM glucose + 10% FBS, 0.0211 µM
# [16] = RPMI 5 mM glucose + 10% FBS, 0.0632 µM
# [17] = RPMI 5 mM glucose + 10% FBS, 0.19 µM
# [18] = RPMI 5 mM glucose + 10% FBS, 0.569 µM
# [19] = RPMI 5 mM glucose + 10% FBS, 1.71 µM
# [20] = RPMI 5 mM glucose + 10% FBS, 5.12 µM
# [21] = RPMI 5 mM glucose + 10% FBS, 15.4 µM
# [22] = RPMI 5 mM glucose + 10% FBS, 46.1 µM
# [23] = RPMI 5 mM glucose + 10% dialyzed FBS, 0.000781 µM
# [24] = RPMI 5 mM glucose + 10% dialyzed FBS, 0.00234 µM
# [25] = RPMI 5 mM glucose + 10% dialyzed FBS, 0.00702 µM
# [26] = RPMI 5 mM glucose + 10% dialyzed FBS, 0.0211 µM
# [27] = RPMI 5 mM glucose + 10% dialyzed FBS, 0.0632 µM
# [28] = RPMI 5 mM glucose + 10% dialyzed FBS, 0.19 µM
# [29] = RPMI 5 mM glucose + 10% dialyzed FBS, 0.569 µM
# [30] = RPMI 5 mM glucose + 10% dialyzed FBS, 1.71 µM
# [31] = RPMI 5 mM glucose + 10% dialyzed FBS, 5.12 µM
# [32] = RPMI 5 mM glucose + 10% dialyzed FBS, 15.4 µM
# [33] = RPMI 5 mM glucose + 10% dialyzed FBS, 46.1 µM
SMILES,cell viability [1] [%],cell viability [2] [%],cell viability [3] [%],cell viability [4] [%],cell viability [5] [%],cell viability [6] [%],cell viability [7] [%],cell viability [8] [%],cell viability [9] [%],cell viability [10] [%],cell viability [11] [%],cell viability [12] [%],cell viability [13] [%],cell viability [14] [%],cell viability [15] [%],cell viability [16] [%],cell viability [17] [%],cell viability [18] [%],cell viability [19] [%],cell viability [20] [%],cell viability [21] [%],cell viability [22] [%],cell viability [23] [%],cell viability [24] [%],cell viability [25] [%],cell viability [26] [%],cell viability [27] [%],cell viability [28] [%],cell viability [29] [%],cell viability [30] [%],cell viability [31] [%],cell viability [32] [%],cell viability [33] [%]
OC[C@H]1O[C@H]([C@@H](F)[C@@H]1O)N2\C=C/C(=O)NC2=O,106,42.5,111,109,108,117,122,112,90.8,109,106,93.2,113,110,101,90.1,105,112,97,93.5,91.2,95.9,105,48.6,99.8,91.6,96.4,102,99.1,90.7,74,100,87.5
CC(=O)C\1=C(/C)C2=CN=C(NC3=CC=C(C=N3)N4CCNCC4)N=C2N(C5CCCC5)C1=O,124,125,107,125,119,109,80.6,68.1,59.6,60.8,27.5,114,119,133,113,126,126,100,80.5,61.6,59.9,22.2,125,107,130,122,127,99.2,86.8,74.4,68.5,63.6,29.2
NC1=NC=C(C=C1)C2=CC=C3N=CC\4=C(N(C(=O)\C=C4)C5=CC(=CC=C5)C(F)(F)F)C3=C2,67.9,65.8,53.2,46.5,37.5,24.7,28.6,24.3,13.3,8.87,14.3,84.7,81.8,74.2,57.2,42.2,27.9,21.8,24.8,8.57,13.8,7.9,70.5,66.7,46.2,44.4,34.8,23.6,21.6,22.5,5.98,5.05,8.96
CC1=C(C=CC=C1)N2\C(=N/C3=C(C(=CC=C3)C)C2=O)C[N]4N=CC5=C4N=CN=C5N,99.5,117,119,128,124,128,121,123,125,117,121,100,124,141,113,113,136,135,135,124,131,119,,,,,,,,,,,
COc1cc(Nc2ncc(F)c(Nc3ccc4c(n3)NC(=O)C(C)(C)O4)n2)cc(OC)c1OC,87.1,99,106,123,106,103,95.8,57.7,6.83,4.48,4.63,57.5,73,70.6,70.4,68.4,70.6,55,34.9,3.27,3.07,3.1,95,111,101,95.2,89.8,104,91.2,49.4,9.48,3.83,4.35
CN1CCC(CC1)COC2=CN=C(N=C2)C3=CC(=CC=C3)CN4/N=C(\C=C/C4=O)C5=CC(=CC=C5)C#N,78.8,105,98,102,112,117,108,104,107,89.9,92.7,67.6,87.1,85.4,66.2,67.5,75.6,79.9,74.7,66.5,74.9,73.2,69.8,103,110,114,99.2,91.4,115,104,106,87.3,105
CC(C)Oc1cc(Nc2nc(N[C@@H](C)c3ccc(F)cn3)ncc2Cl)n[nH]1,106,103,90.3,102,96.3,80.5,50.5,34.6,26,22.1,25.3,109,83.1,96,95.6,108,81.2,60.3,21.9,19.2,14.8,16.2,84.9,98,100,114,83,67.9,43.4,26.3,17.9,14.9,16.2
O=C(NC[C@H]1CN(c2ccc(N3CCOCC3=O)cc2)C(=O)O1)c1ccc(Cl)s1,89.8,107,104,107,104,103,125,108,116,134,118,103,113,120,114,102,117,129,109,117,123,115,109,105,118,98.9,116,132,120,129,136,134,122
